In patent US20090239828A1, “Adhesive preparation” (priority 2006, published 2009):

Assays:
[1] = Oral administration in rat models of osteoporosis; settings: in vivo; from the minimum effective dose in oral administration in rat models; read-out: sum of the AUC value of minodronic acid per month that gives a suppressive effect on osteoporosis
Protocol: The effective blood concentration of the bisphosphonic acid derivative for human can be extrapolated from results of various clinical tests, animal experiments, etc. For example, when minodronic acid hydrate was used, the sum of the AUC value of minodronic acid per month that gives a suppressive effect on osteoporosis was about 5 ng·hr/mL or more, from the minimum effective dose in oral administration in rat models of osteoporosis.

[2] = Clinical test, once daily oral administration to patients with osteoporosis; settings: human, in vivo

AUC [1]: ≥ 5 ng·h/mL
AUC [2]: ≥ 1 ng·h/mL
Structure (SMILES): O=P(O)(O)C(O)(Cc1cnc2ccccn12)P(=O)(O)O [minodronic acid hydrate, 1-hydroxy-2-(imidazo[1,2-a]pyridin-3-yl)ethylidenebisphosphonic acid]
